Experiment [1] has as its target T1, AbaR (Acinetobacter nosocomialis, UniProt A0A0N8YGA2). As to the kind of experiment: AbaR agonism reporter gene. The experiment is classed as cell-based, Acinetobacter baumannii. The note with it: for Activation [%]: AHLs at 100 µM, normalized to (R)-OH-dDHL at 100 µM (set to 100%), error ≤ ±10%; for EC50: EC50, AHLs over 200 pM – 200 µM; for AbaR agonism (in words): 100 µM. For orientation: In a reporter assay the amount or activity of a reporter protein is the signal.

The target of experiment [2] is T1, AbaR. The note with it: identical A. baumannii reporter strain; ref 43 (Garner et al.); cited from earlier work.
The next experiment concerns LasR. The note with it: cited from earlier work.
In experiment [3] the test system is A. baumannii (ΔabaI). In words: A. baumannii biofilm assay. The experiment is classed as cell-based, Acinetobacter baumannii. The note with it: AHL at 100 µM, crystal violet, 24 h; for inhibition of biofilm formation (in words): biofilm recovery with (R)-OH-dDHL; for reduction of biofilm recovery: (R)-OH-dDHL added.
Experiment [4] concerns A. baumannii (ΔabaI). As to the kind of experiment: A. baumannii motility assay on soft agar. The experiment is classed as cell-based, Acinetobacter baumannii. The note with it: for concentration preventing migration (comparable to ΔabaI mutant): (R)-OH-dDHL supplemented 0.3% soft agar; for IC50: Acinetobacter baumannii, read-out: IC50 value, motility inhibition.
Experiment [5] has as its target T1, AbaR. As to the kind of experiment: AbaR antagonism reporter gene. The note with it: for AbaR antagonistic activity (in words): primary screening data. The experiment is classed as cell-based, Acinetobacter baumannii.
Another experiment concerns wild-type A. baumannii. As to the kind of experiment: A. baumannii biofilm assay. The experiment is classed as cell-based. The note with it: Acinetobacter baumannii, read-out: inhibition of biofilm formation.
The mark [6] stands for this setting: AHLs over 10 nM – 100 µM against (R)-OH-dDHL at 0.70 µM.

The values below come from paper PMC3477293 (ACS chemical biology, 2012).

Values joined by “and” are separate entries in the source; they are usually repeats but may differ in a detail not shown here. Equal values may be shown once. Read-outs that look alike come from different tables or passages of the source.

T1 sequence (A0A0N8YGA2 whole entry): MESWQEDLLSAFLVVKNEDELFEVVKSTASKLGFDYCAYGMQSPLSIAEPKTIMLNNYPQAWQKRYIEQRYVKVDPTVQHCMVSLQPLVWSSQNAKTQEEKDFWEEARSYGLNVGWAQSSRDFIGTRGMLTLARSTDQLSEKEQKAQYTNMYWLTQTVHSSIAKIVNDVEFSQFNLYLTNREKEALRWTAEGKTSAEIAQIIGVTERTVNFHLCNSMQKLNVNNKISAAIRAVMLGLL

As usually defined, the EC50 is the concentration that produces a half-maximal response. On to `CCCCCCCCC[C@@H](O)CC(=O)N[C@H]1CCOC1=O` [(R)-OH-dDHL, N-(3’-hydroxydodecanoyl)-L-HL, reference compound], for which, on AbaR [1], the “Activation [%]” value is recorded as 100%. In addition, the 50% effective concentration (EC50) on AbaR [1] is 0.7 µM and 0.699 µM; on AbaR [2], 0.67 µM. For the same compound, the “fold more active than (S)-OH-dDHL (AbaR activation)” value at AbaR [1] (from EC50 values) is listed as ~ 40 fold.

Turning to `CCCCCCCCC[C@H](O)CC(=O)N[C@H]1CCOC1=O` [(S)-OH-dDHL, N-(3’-hydroxydodecanoyl)-L-HL], on AbaR [1], the “Activation [%]” value amounted to 90%; the EC50 was 29 µM and 28.9 µM. Moreover, the 50% effective concentration (EC50) at AbaR [2] was 0.82 µM.

What is called IC50 is the concentration at which inhibition is half-maximal. A word on the inhibition: it is the percentage by which the read-out fell short of the control. Take `CCCCCC(=O)CC(=O)N[C@H]1CCOC1=O` [Compound 1, 3-oxo-octanoyl-HL]: the “AbaR agonism (in words)” value at AbaR [1] is listed as “limited AbaR agonism”. The LasR inhibition in the experiment on LasR is reported as 50%. Further, in the experiment with LasR (read-out: IC50 (LasR)), the half-inhibitory concentration (IC50) was 0.11 µM. Besides, the “inhibition of biofilm formation (in words)” value (“inhibition … (in words)” for short) with A. baumannii (ΔabaI) [3] is reported as “inhibit biofilm formation to significant levels”. The “concentration preventing migration (comparable to ΔabaI mutant)” value in the experiment on A. baumannii (ΔabaI) [4] is given as “less than 20 µM”. At AbaR [5], this compound gave an IC50 of 2.91 µM and an inhibition at 100 µM of 73%.

As to `CCCCCCCCCC(=O)CC(=O)N[C@H]1CCOC1=O` [Compound 2], at AbaR [1], the “Activation [%]” value is 62% and the 50% effective concentration (EC50) was 7.57 µM.

At AbaR [5], `CCCCCCC(=O)N[C@H]1CCOC1=O` [Compound 4, heptanoyl-HL] displayed an IC50 of 13.7 µM and an inhibition at 100 µM of 75%.

For `O=C(Cc1ccc(Br)cc1)N[C@H]1CCOC1=O` [Compound 8, 4-bromo PHL], at AbaR [5], inhibition was half-maximal at 7.83 µM (IC50) and the inhibition at 100 µM was 71%.

Consider `CCCCCCCC(=O)NC1CCOC1=O` (stereo not drawn) [Compound A3, octanoyl-HL], for which the “Inhibition [%]” value on AbaR [5] (AHLs at 100 µM against (R)-OH-dDHL at 0.70 µM, error ≤ ±10%) is recorded as 60%.

Turning to `CCCCCCCCCCCC(=O)NC1CCOC1=O` (stereo not drawn) [Compound A5, dodecanoyl HL], the “AbaR agonism (in words)” value at AbaR [1] is listed as “no agonistic activity”.

Turning to `CCCCCCCCCC(=O)NC1CCOC1=O` (stereo not drawn) [Compound A7, decanoyl-HL], at AbaR [1], the “AbaR agonism (in words)” value is given as “limited AbaR agonism” and the “Activation [%]” value is reported as 3%.

Take `CCCCCCCCCCCCCC(=O)NC1CCOC1=O` (stereo not drawn) [Compound A8, tetradecanoyl-HL]: on AbaR [1], the “AbaR agonism (in words)” value was “limited AbaR agonism” and the “Activation [%]” value was 9%.

On AbaR [5], `O=C(CCc1ccccc1)N[C@H]1CCOC1=O` [Compound B10, phenylpropanoyl HL] came in with an IC50 of 11 µM and an inhibition at 100 µM of 72%.

Consider `O=C(Cc1ccc(F)cc1)N[C@H]1CCOC1=O` [Compound C2], for which, at AbaR [5] (setting [6]), the 50% inhibitory concentration (IC50) is more than 25 µM.

Regarding `O=C(Cc1ccc(Cl)cc1)N[C@H]1CCOC1=O` [Compound C5], on AbaR [5], 100 µM produced 78% inhibition. At AbaR [5] (setting [6]), this compound returned an IC50 of 16.7 µM.

As to `O=C(Cc1cccc(Cl)c1)N[C@H]1CCOC1=O` [Compound C6, 3-chloro PHL], the IC50 with A. baumannii (ΔabaI) [4] is approximately 40 µM; at AbaR [5] it was 5.47 µM. The compound also had an inhibition at 100 µM at AbaR [5] of 83%.

`O=C(Cc1ccccc1Cl)N[C@H]1CCOC1=O` [Compound C7] yielded an inhibition at 100 µM at AbaR [5] of 83%. The compound further gave a concentration for half-maximal inhibition (IC50) on AbaR [5] (setting [6]) of 18.5 µM.

Take `O=C(Cc1cccc(Br)c1)N[C@H]1CCOC1=O` [Compound C8, 3-bromo PHL]: in the experiment on A. baumannii (ΔabaI) [3], the “reduction of biofilm recovery” value is listed as ~ 40% and the “inhibition … (in words)” value is listed as “inhibit biofilm formation to significant levels”. In addition, in the experiment on A. baumannii (ΔabaI) [4], the “concentration preventing migration (comparable to ΔabaI mutant)” value was “less than 20 µM” and the IC50 is approximately 7 µM. In addition, the inhibition at 100 µM in the experiment with wild-type A. baumannii was approximately 40%. For the same compound, on AbaR [5], half-maximal inhibition (IC50) was put at 5.06 µM, 100 µM produced 90% inhibition and the “AbaR antagonistic activity (in words)” value is recorded as “moderately to strongly inhibitory”.

Regarding `O=C(Cc1ccccc1Br)N[C@H]1CCOC1=O` [Compound C9], on AbaR [5], the IC50 amounted to 17.5 µM, the inhibition at 100 µM is 97% and the “AbaR antagonistic activity (in words)” value is “moderately to strongly inhibitory”.

With `O=C(Cc1ccc(I)cc1)N[C@H]1CCOC1=O` [Compound C10, 4-iodo PHL], in the experiment with A. baumannii (ΔabaI) [3], the “reduction of biofilm recovery” value was ~ 40% and the “inhibition … (in words)” value is on record as “inhibit biofilm formation to significant levels”. Also, the IC50 with A. baumannii (ΔabaI) [4] was approximately 70 µM. Besides, the inhibition at 100 µM with wild-type A. baumannii was approximately 40%. On AbaR [5], this compound registered an IC50 of 7.06 µM and an inhibition at 100 µM of 91%.

Consider `O=C(Cc1cccc(I)c1)N[C@H]1CCOC1=O` [Compound C11, 3-iodo PHL], for which, in the experiment on A. baumannii (ΔabaI) [4], the “concentration preventing migration (comparable to ΔabaI mutant)” value is given as “less than 20 µM” and the IC50 was approximately 15 µM. For the same compound, at AbaR [5], it took 2.32 µM to reach half-maximal inhibition (IC50) and testing at 100 µM gave an inhibition of 91%.

As to `O=C(Cc1ccccc1I)N[C@H]1CCOC1=O` [Compound C12, 2-iodo-PHL], in the experiment on A. baumannii (ΔabaI) [4], the concentration for half-maximal inhibition (IC50) was approximately 40 µM. At AbaR [5], this compound registered an IC50 of 6.13 µM and an inhibition at 100 µM of 80%.

As to `O=C(Cc1cccc([N+](=O)[O-])c1)N[C@H]1CCOC1=O` [Compound C14, 3-nitro PHL], the figures for the IC50 in the experiment with A. baumannii (ΔabaI) [4] and against AbaR [5] were approximately 70 µM and 8 µM, respectively. Testing at 100 µM on AbaR [5] gave an inhibition of 70%.
